Assay results from US11111245B2, “Derivatives of N-cycloalkyl/heterocycloalkyl-4-(imidazo[1,2-a]pyridine)pyrimidin-2-amine as therapeutic agents” (Aucentra Therapeutics Pty Ltd, priority 2017, dated 2021).

Experiments:
CDK4/D1 = CDK4/D1 (Homo sapiens, UniProt P11802); test: ADP Glo Kinase assay CDK4/D1; format: biochemical; settings: CDK4D1; for remaining activity at 10 µM: compound at 10 μM, read-out: residual activity (%) at 10 μM CDK4D1; for Ki: read-out: CDK inhibition, Ki (μM) CDK4D1
Summary of the method: (§1)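 Other CDKs and further kinases were profiled externally by radiometric assay. In-house ADP Glo assays covered CDK4/D1 and CDK6/D3 (RB-CTF substrate, pH 7.5 Tris buffer with MgCl2, DTT, BSA) and CDK9/T1 (RBER-IRStide substrate), 40 min at 37° C.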

CDK6/D3 = CDK6/D3 (Homo sapiens, UniProt Q00534); test: ADP Glo Kinase assay CDK6/D3; format: biochemical; settings: CDK6D3; compound at 10 μM; read-out: residual activity (%) at 10 μM CDK6D3
Sequence of CDK6/D3 (Q00534 whole entry): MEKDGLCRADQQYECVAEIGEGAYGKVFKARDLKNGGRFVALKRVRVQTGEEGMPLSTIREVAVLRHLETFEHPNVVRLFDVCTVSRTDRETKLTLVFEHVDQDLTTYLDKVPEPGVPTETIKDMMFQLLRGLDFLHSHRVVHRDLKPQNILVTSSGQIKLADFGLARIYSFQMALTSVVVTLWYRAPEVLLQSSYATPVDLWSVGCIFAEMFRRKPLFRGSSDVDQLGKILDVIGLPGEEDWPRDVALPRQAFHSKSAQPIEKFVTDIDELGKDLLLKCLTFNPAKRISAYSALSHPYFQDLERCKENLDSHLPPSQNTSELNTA
Sequence of CDK6/D3 (P30281 whole entry partner): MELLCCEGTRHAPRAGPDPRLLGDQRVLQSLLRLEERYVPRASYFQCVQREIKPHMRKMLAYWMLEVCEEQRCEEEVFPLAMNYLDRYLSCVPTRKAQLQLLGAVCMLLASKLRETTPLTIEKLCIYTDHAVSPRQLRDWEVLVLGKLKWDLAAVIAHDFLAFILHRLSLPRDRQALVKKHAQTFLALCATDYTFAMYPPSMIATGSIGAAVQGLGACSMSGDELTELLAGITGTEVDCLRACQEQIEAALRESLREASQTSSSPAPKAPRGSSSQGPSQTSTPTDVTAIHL
Summary of the method: as §1

CDK9/T1 = CDK9/T1 (Homo sapiens, UniProt P50750); test: ADP Glo Kinase assay CDK9/T1; format: biochemical; settings: CDK9T1; read-out: CDK inhibition, Ki (μM) CDK9T1
Sequence of CDK9/T1 (P50750 whole entry): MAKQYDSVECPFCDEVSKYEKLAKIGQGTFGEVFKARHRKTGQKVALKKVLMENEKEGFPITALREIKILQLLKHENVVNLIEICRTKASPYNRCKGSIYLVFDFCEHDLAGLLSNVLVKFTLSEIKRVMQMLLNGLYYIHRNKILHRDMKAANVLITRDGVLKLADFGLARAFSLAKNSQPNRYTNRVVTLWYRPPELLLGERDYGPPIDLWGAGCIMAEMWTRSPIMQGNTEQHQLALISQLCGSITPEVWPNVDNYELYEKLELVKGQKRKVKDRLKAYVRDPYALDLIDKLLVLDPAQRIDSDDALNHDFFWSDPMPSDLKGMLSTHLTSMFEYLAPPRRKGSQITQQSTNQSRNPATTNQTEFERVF
Sequence of CDK9/T1 (O60563 whole entry partner): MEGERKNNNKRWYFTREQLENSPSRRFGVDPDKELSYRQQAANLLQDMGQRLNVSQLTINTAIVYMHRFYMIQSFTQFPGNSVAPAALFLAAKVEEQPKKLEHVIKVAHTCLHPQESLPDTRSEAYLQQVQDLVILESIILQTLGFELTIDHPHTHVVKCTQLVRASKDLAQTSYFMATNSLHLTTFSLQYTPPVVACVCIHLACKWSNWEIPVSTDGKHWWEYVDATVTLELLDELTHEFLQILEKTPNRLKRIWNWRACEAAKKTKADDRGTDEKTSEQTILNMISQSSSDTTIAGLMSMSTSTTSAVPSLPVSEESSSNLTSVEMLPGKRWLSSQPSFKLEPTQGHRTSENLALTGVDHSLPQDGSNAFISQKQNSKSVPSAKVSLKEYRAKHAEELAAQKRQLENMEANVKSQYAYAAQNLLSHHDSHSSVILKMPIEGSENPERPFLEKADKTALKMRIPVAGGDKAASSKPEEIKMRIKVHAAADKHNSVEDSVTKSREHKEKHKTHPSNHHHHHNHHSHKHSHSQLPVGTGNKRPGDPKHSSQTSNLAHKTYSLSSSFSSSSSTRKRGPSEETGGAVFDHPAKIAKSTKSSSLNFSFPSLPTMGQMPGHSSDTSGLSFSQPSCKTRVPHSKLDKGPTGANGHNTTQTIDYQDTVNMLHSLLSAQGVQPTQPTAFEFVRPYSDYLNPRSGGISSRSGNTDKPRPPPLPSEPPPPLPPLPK
Summary of the method: as §1

CDKs and other kinases [1] = target: T1, CDKs and other kinases (Homo sapiens, UniProt P06493); test: Radiometric kinase assay (Eurofins Pharma Discovery or Reaction Biology Corporation Kinase Profiler); format: biochemical; settings: CDK1B; for remaining activity at 10 µM: compound at 10 μM, read-out: residual activity (%) at 10 μM CDK1B; for Ki: read-out: CDK inhibition, Ki (μM) CDK1B
T1 construct: other: CDK1B; residual activity (%) at 10 μM CDK1B; compound at 10 μM
T1 sequence (P06493 whole entry): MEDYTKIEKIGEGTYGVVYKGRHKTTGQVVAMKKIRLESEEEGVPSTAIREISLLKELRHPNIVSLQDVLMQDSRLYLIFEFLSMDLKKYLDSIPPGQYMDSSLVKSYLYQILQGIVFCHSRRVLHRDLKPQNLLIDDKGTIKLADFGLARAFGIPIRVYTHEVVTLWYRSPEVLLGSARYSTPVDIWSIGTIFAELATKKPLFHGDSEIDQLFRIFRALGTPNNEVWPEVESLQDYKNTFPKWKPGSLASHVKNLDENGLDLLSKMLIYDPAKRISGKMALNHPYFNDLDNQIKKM
Summary of the method: as §1

CDKs and other kinases [2] = target: T2, CDKs and other kinases (Homo sapiens, UniProt P24941); test: as above; format: biochemical; settings: CDK2A; for remaining activity at 10 µM: compound at 10 μM, read-out: residual activity (%) at 10 μM CDK2A; for Ki: read-out: CDK inhibition, Ki (μM) CDK2A
T2 construct: other: CDK2A; residual activity (%) at 10 μM CDK2A; compound at 10 μM
Summary of the method: as §1

CDKs and other kinases [3] = target: T3, CDKs and other kinases (Homo sapiens, UniProt P50613); test: as above; format: biochemical; settings: CDK7H; for remaining activity at 10 µM: compound at 10 μM, read-out: residual activity (%) at 10 μM CDK7H; for Ki: read-out: CDK inhibition, Ki (μM) CDK7H
T3 construct: other: CDK7H; residual activity (%) at 10 μM CDK7H; compound at 10 μM
T3 sequence (P50613 whole entry): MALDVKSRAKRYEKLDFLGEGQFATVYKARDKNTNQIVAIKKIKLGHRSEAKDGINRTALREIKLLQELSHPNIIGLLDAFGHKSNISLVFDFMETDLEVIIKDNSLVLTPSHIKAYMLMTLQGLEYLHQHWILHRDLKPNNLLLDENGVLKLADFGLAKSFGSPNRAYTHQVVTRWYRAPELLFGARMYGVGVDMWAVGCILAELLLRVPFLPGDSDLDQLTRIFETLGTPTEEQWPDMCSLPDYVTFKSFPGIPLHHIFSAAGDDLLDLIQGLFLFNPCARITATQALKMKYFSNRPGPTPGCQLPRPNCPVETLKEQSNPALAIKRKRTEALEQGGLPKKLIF
Summary of the method: as §1

leukemia cell lines = test: Resazurin cell viability assay on leukemia cell lines (72 h growth inhibition, GI50); format: cell-based; settings: Homo sapiens, MV4-11 cells
Summary of the method: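 Standard published viability protocols apply here, MTT-based for solid tumour cells and resazurin-based for leukaemia cells, with 50% growth inhibition concentrations derived through non-linear regression.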

Sequence of CDK4/D1 (P11802 whole entry): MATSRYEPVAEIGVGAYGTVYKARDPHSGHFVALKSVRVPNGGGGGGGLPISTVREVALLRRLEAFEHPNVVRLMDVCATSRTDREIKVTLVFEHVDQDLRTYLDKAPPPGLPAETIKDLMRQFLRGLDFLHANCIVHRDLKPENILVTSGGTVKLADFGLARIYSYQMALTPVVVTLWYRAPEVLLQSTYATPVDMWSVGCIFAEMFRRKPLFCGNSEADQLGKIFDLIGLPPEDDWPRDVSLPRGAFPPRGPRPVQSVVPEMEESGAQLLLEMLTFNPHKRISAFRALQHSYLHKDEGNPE
Sequence of CDK4/D1 (P24385 whole entry partner): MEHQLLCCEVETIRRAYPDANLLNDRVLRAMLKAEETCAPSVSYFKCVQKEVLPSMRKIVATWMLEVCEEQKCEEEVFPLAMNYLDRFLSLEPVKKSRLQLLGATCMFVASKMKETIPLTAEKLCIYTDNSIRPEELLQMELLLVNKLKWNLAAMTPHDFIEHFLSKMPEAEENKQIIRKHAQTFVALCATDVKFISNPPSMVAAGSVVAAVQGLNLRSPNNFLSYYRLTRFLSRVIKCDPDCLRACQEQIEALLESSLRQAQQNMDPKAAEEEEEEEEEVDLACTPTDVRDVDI

| Compound | remaining activity at 10 µM (CDK4/D1) | remaining activity at 10 µM (CDK6/D3) | Ki (CDK9/T1) | remaining activity at 10 µM (CDKs and other kinases [1]) | remaining activity at 10 µM (CDKs and other kinases [2]) | remaining activity at 10 µM (CDKs and other kinases [3]) | GI50 (leukemia cell lines) | Ki (CDKs and other kinases [1]) | Ki (CDKs and other kinases [2]) | Ki (CDKs and other kinases [3]) | Ki (CDK4/D1) |
| --- | --- | --- | --- | --- | --- | --- | --- | --- | --- | --- | --- |
| CCOc1ccc(Nc2ccc3ncc(-c4nc(N[C@H]5CC[C@H](N)CC5)ncc4C)n3c2)cn1 [Compound 67, (1r,4r)-N^1-(4-(6-((6-Ethoxypyridin-3-yl)amino)imidazo [1,2-a]pyridin-3-yl)-5-methylpyrimidin-2-yl)cyclohexane-1,4-diamine] | 31% | 29% | 0.017 µM | 38% | 10% | 52% | 0.128 ± 0.04 µM | – | – | – | – |
| Cc1cnc(N[C@H]2CC[C@H](N)CC2)nc1-c1cnc2ccc(-c3ccoc3)cn12 [Compound 63, (1r,4r)-N^1-(4-(6-(Furan-3-yl)imidazo[1,2-a]pyridin-3-yl)-5-methylpyrimidin-2-yl)cyclohexane-1,4-diamine] | 38% | 29% | 0.054 µM | 18% | 6% | 18% | 0.095 ± 0.031 µM | – | – | – | – |
| Cc1cnc(N[C@H]2CC[C@H](O)CC2)nc1-c1cnc2ccc(Nc3cccnc3)cn12 [Compound 106, (1r,4r)-4-((5-Methyl-4-(6-(pyridin-3-ylamino)imidazo [1,2-a]pyridin-3-yl)pyrimidin-2-yl)amino)cyclohexan-1-ol] | 43% | 71% | 0.042 µM | 5% | 2% | 25% | 0.851 ± 0.048 µM | – | – | – | – |
| CS(=O)(=O)N[C@H]1CC[C@H](Nc2ncc(Cl)c(-c3cnc4c(Br)cc(C(F)(F)F)cn34)n2)CC1 [Compound 18, N-((1r,4r)-4-((4-(8-Bromo-6-(trifluoromethyl)imidazo [1,2-a]pyridin-3-yl)-5-chloropyrimidin-2-yl)amino)cyclohexyl)methanesulfonamide] | 9% | 41% | 0.148 µM | – | – | – | 6.11 ± 1.14 µM | 0.028 µM | 0.007 µM | 0.001 µM | – |
| N[C@H]1CC[C@H](Nc2ncc(Cl)c(-c3cnc4c(-c5cccnc5)cc(C(F)(F)F)cn34)n2)CC1 [Compound 86, (1r,4r)-N^1-(5-Chloro-4-(8-(pyridin-3-yl)-6-(trifluoromethyl)imidazo[1,2-a]pyridin-3-yl)pyrimidin-2-yl)cyclohexane-1,4-diamine] | 25% | 47% | 0.216 µM | – | – | – | 0.086 ± 0.005 µM | 2.64 µM | 0.25 µM | 0.044 µM | – |
| CS(=O)(=O)N1CCC(Nc2ncc(F)c(-c3cnc4ccccn34)n2)CC1 [Compound 24, 5-Fluoro-4-(imidazo[1,2-a]pyridin-3-yl)-N-(1-(methylsulfonyl)piperidin-4-yl)pyrimidin-2-amine] | -16% | 18% | 0.141 µM | -1% | -1% | – | 0.506 ± 0.104 µM | – | – | 0.281 µM | – |
| Cc1cnc(N[C@H]2CC[C@H](O)CC2)nc1-c1cnc2ccc(-c3ccccc3)cn12 [Compound 105, (1r,4r)-4-((5-Methyl-4-(6-phenylimidazo[1,2-a]pyridin-3-yl)pyrimidin-2-yl)amino)cyclohexan-1-ol] | 93% | 94% | 0.188 µM | 7% | 3% | 15% | 0.748 ± 0.063 µM | – | – | – | – |
| COc1ccc(-c2ccc3ncc(-c4nc(N[C@H]5CC[C@H](N)CC5)ncc4Cl)n3c2)cc1 [Compound 82, (1r,4r)-N^1-(5-Chloro-4-(6-(4-methoxyphenyl)imidazo [1,2-a]pyridin-3-yl)pyrimidin-2-yl)cyclohexane-1,4-diamine] | 20% | 99% | 0.018 µM | – | – | – | 0.054 ± 0.015 µM | 0.82 µM | 0.22 µM | 0.15 µM | – |
| N[C@H]1CC[C@H](Nc2ncc(F)c(-c3cnc4ccccn34)n2)CC1 [Compound 1, (1r,4r)-N^1-(5-Fluoro-4-(imidazo[1,2-a]pyridin-3-yl)pyrimidin-2-yl)cyclohexane-1,4-diamine] | – | 23% | 0.006 µM | – | – | – | 0.046 ± 0.005 µM | 0.077 µM | 0.018 µM | 0.026 µM | 0.025 µM |
| N[C@H]1CC[C@H](Nc2ncc(F)c(-c3cnc4ccc(Nc5cccc(F)c5)cn34)n2)CC1 [Compound 25, (1r,4r)-N^1-(5-Fluoro-4-(6-((3-fluorophenyl)amino)imidazo[1,2-a]pyridin-3-yl)pyrimidin-2-yl) cyclohexane-1,4-diamine] | 4% | 4% | 0.003 µM | 3% | 2% | 1% | < 0.001 µM | – | – | – | – |
| Cc1cnc(NC2CCC(NCC(F)(F)F)CC2)nc1-c1cnc2ccc(Nc3cncnc3)cn12 (stereo not shown) [Compound 112, N^1-(5-Methyl-4-(6-(pyrimidin-5-ylamino)imidazo[1,2-a]pyridin-3-yl)pyrimidin-2-yl)-N^4-(2,2,2-trifluoroethyl) cyclohexane-1,4-diamine] | – | 45% | 0.205 µM | – | – | – | 2.55 ± 1.7 µM | 1.73 µM | 0.49 µM | > 5 µM | > 5 µM |
| Cc1ccc(Nc2ccc3ncc(-c4nc(N[C@H]5CC[C@H](N)CC5)ncc4C)n3c2)cn1 [Compound 69, (1r,4r)-N^1-(5-Methyl-4-(6-((6-methylpyridin-3-yl)amino)imidazo[1,2-a]pyridin-3-yl)pyrimidin-2-yl)cyclohexane-1,4-diamine] | 24% | 25% | 0.023 µM | – | – | – | 0.199 ± 0.02 µM | 2.95 µM | 0.61 µM | 0.95 µM | – |
| COc1cnc(N[C@H]2CC[C@H](N)CC2)nc1-c1cnc2ccccn12 [Compound 11, (1r,4r)-N^1-(4-(Imidazo[1,2-a]pyridin-3-yl)-5-methoxypyrimidin-2-yl)cyclohexane-1,4-diamine] | 40% | 27% | 0.291 µM | 75% | 63% | 26% | 0.009 ± 0.001 µM | – | – | – | – |
| Cc1cnc(N[C@H]2CC[C@@H](N)CC2)nc1-c1cnc2ccc(Nc3cccnc3)cn12 [Compound 92, (1s,4s)-N^1-(5-Methyl-4-(6-(pyridin-3-ylamino)imidazo [1,2-a]pyridin-3-yl)pyrimidin-2-yl)cyclohexane-1,4-diamine] | 37% | 58% | 0.089 µM | 22% | 27% | 27% | 0.179 ± 0.061 µM | – | – | – | – |
| N[C@H]1CC[C@H](Nc2ncc(F)c(-c3cnc4ccc(-c5cccnc5)cn34)n2)CC1 [Compound 26, (1r,4r)-N^1-(5-Fluoro-4-(6-(pyridin-3-yl)imidazo[1,2-a]pyridin-3-yl)pyrimidin-2-yl)cyclohexane-1,4-diamine] | 9% | 24% | 0.003 µM | 7% | 5% | 0% | < 0.001 µM | – | – | – | – |
| Cc1cnc(N[C@]23C[C@@]4(C)C[C@](C)(C[C@](O)(C4)C2)C3)nc1-c1cnc2ccc(Nc3cccnc3)cn12 [Compound 101, (1s,3R,5S,7r)-3,5-Dimethyl-7-((5-methyl-4-(6-(pyridin-3-ylamino)imidazo[1,2-a]pyridin-3-yl)pyrimidin-2-yl)amino)adamantan-1-ol] | 97% | 100% | 0.561 µM | 60% | 41% | 85% | > 10 µM | – | – | – | – |
